# Test results from patent publication US9339503B2, “Tetrahydro-quinazolinone derivatives as TANK and PARP inhibitors” (MERCK PATENT GMBH, priority 2012, dated 2016).
# What was measured:
# [1] = tested on: tankyrase 1/2; experiment: Measurement of cellular inhibition of tankyrase (Axin2 level, Luminex based assay, DLD1 cells); details: 24 hours, increase of Axin2 level, read-out: EC50 tankyrase 1/2 (cell assay)
# Protocol: Measurement of Cellular Inhibition of Tankyrase
# Since Tankyrases have been described to modulate cellular level of Axin2 (Huang et al., 2009; Nature) the increase of Axin2 level is used as read-out for determination of cellular inhibition of Tankyrases in a Luminex based assay.
# Cells of the colon carcinoma cell line DLD1 are plated in 96 well plates with 1.5×10^4 cells per well. Next day, cells are treated with a serial-dilution of test compound in seven steps as triplicates with a final DMSO concentration of 0.3%. After 24 hours, cells are lysed in lysis buffer (20 mM Tris/HCl pH 8.0, 150 mM NaCl, 1% NP40, 10% Glycerol) and lysates are cleared by centrifugation through a 96 well filter plate (0.65 μm). Axin2 protein is isolated from cell lysates by incubation with a monoclonal anti-Axin2 antibody (R&D Systems #MAB6078) that is bound to fluorescent carboxybeads. Then, bound Axin2 is specifically detected with a polyclonal anti-Axin2 antibody (Cell Signaling #2151) and an appropriate PE-fluorescent secondary antibody. The amount of isolated Axin2 protein is determined in a Luminex^200 machine (Luminex Corporation) according to the manufacturer's instruction by counting 100 events per well. […] For analysis, the obtained data were normalized against the untreated solvent control and fitted for determination of the EC50 values using the Assay Explorer software (Accelrys).
# [2] = target: T1, His-tagged Parp-1 (Homo sapiens, UniProt P09874); experiment: PARP-1 autoparsylation assay (HTRF); format: biochemical; details: read-out: IC50 PARP1
# T1 construct: purchased Enzo Life Sciences GmbH, Lörrach, Germany
# Protocol: Biochemical Activity Testing of PARP-1: Autoparsylation Assay
# The autoparsylation assay was run in two steps: the enzymatic reaction in which His-tagged Parp-1 transferred biotinylated ADP-ribose/ADP-ribose to itself from biotinylated NAD/NAD as co-substrate and the detection reaction where a time resolved FRET between cryptate labelled anti-His antibody bound to the His tag of the enzyme and Xlent® labelled-streptavidin bound the biotin-parsylation residue was analysed. The autoparsylation activity was detectable directly via the increase in HTRF signal.
# The autoparsylation assay was performed as 384-well HTRF® (Cisbio, Codolet, France) assay format in Greiner low volume nb 384-well microtiter plates. 35 nM His-tagged Parp-1 (human, recombinant, Enzo Life Sciences GmbH, Lörrach, Germany) and a mixture of 125 nM bio-NAD (Biolog, Life science Inst., Bremen, Germany) and 800 nM NAD as co-substrate were incubated in a total volume of 6 μl (100 mM Tris/HCl, 4 mM Mg-chloride, 0.01% IGEPAL® CA630, 1 mM DTT, 0.5% DMSO, pH 8, 13 ng/μl activated DNA (BPS Bioscience, San Diego, US)) in the absence or presence of the test compound (10 dilution concentrations) for 150 min at 23° C. The reaction was stopped by the addition of 4 μl of the Stop/detection solution (70 nM SA-Xlent® (Cisbio, Codolet, France), 2.5 nM Anti-His-K® (Eu-labelled anti-His, Cisbio, Codolet, France) in 50 mM HEPES, 400 mM KF, 0.1% BSA, 20 mM EDTA, pH 7.0). After 1 h incubation at room temperature the HTRF was measured with an Envision multimode reader (Perkin Elmer LAS Germany GmbH) at excitation wavelength 340 nm (laser mode) and emission wavelengths 615 nm and 665 nm. The ratio of the emission signals was determined. The full value used was the inhibitor-free reaction. The pharmacological zero value used was Olaparib (LClabs, Woburn, US) in a final concentration of 1 μM. The inhibitory values (IC50) were determined using either the program Symyx Assay Explorer® or Condosseo® from GeneData.
# [3] = target: T2, GST-tagged Tnks-1 (1023-1327 aa) (Homo sapiens, UniProt O95271); experiment: TNKS 1 activity ELISA (autoparsylation assay); format: biochemical; details: read-out: IC50 tankyrase 1 (ELISA assay)
# T2 construct: GST-tagged Tnks-1 (1023-1327 aa, prepared in-house); made in house
# Protocol: Biochemical Activity Testing of TNKS 1 and 2: Activity ELISA (Autoparsylation Assay)
# For analysis of autoparsylation activity of TNKS 1 and 2 an activity ELISA was performed: In the first step GST tagged TNKS was captured on a Glutathione coated plate. Then the activity assay with biotinylated NAD was performed in the absence/presence of the compounds. During the enzymatic reaction GST tagged TNKS transferred biotinylated ADP-ribose to itself from biotinylated NAD as co-substrate. For the detection streptavidin-HRP conjugate was added that bound to the biotinylated TNKS and was thereby captured to the plates. The amount of biotinylated resp autoparsylated TNKS was detected with a luminescence substrate for HRP. The level of the luminescence signal correlated directly with the amount of autoparsylated TNKS and therefore with activity of TNKS.
# The activity ELISA was performed in 384 well Glutathione coated microtiter plates (Express capture Glutathione coated plate, Biocat, Heidelberg, Germany). The plates were pre-equilibrated with PBS. Then the plates were incubated with 50 μl 20 ng/well GST-tagged Tnks-1 (1023-1327 aa, prepared in-house), respectively GST-tagged Tnks-2 (873-1166 aa, prepared in-house) in assay buffer (50 mM HEPES, 4 mM Mg-chloride, 0.05% Pluronic F-68, 2 mM DTT, pH 7.7) overnight at 4° C. The plates were washed 3 times with PBS-Tween-20. The wells were blocked by incubation at room temperature for 20 minutes with 50 μl blocking buffer (PBS, 0.05% Tween-20, 0.5% BSA). Afterwards the plates were washed 3 times with PBS-Tween-20. The enzymatic reaction was performed in 50 μl reaction solution (50 mM HEPES, 4 mM Mg-chloride, 0.05% Pluronic F-68, 1.4 mM DTT, 0.5% DMSO, pH 7.7) with 10 μM bio-NAD (Biolog, Life science Inst., Bremen, Germany) as co-substrate in the absence or presence of the test compound (10 dilution concentrations) for 1 hour at 30° C. The reaction was stopped by 3 times washing with PBS-Tween-20. For the detection 50 μl of 20 ng/μl Streptavidin, HRP conjugate (MoBiTec, Göttingen, Germany) in PBS/0.05% Tween-20/0.01% BSA were added and the plates were incubated for 30 minutes at room temperature. After three times washing with PBS-Tween-20 50 μl of SuperSignal ELISA Femto Maximum sensitivity substrate solution (ThermoFisherScientific (Pierce), Bonn, Germany) were added. Following a 1 minute incubation at room temperature luminescence signals were measured with an Envision multimode reader (Perkin Elmer LAS Germany GmbH) at 700 nm. The full value used was the inhibitor-free reaction. The pharmacological zero value used was XAV-939 (Tocris) in a final concentration of 5 μM. The inhibitory values (IC50) were determined using either the program Symyx Assay Explorer® or Condosseo® from GeneData.
# T2 sequence (O95271 1023-1327): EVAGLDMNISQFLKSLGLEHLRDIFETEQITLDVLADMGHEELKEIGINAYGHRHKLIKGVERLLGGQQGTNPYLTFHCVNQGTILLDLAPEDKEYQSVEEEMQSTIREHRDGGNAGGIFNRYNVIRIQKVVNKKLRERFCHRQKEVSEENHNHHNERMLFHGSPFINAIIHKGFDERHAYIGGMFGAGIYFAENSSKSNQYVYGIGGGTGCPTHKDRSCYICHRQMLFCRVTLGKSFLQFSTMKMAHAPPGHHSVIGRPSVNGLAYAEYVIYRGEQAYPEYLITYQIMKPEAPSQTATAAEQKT
# T1 sequence (P09874 whole entry): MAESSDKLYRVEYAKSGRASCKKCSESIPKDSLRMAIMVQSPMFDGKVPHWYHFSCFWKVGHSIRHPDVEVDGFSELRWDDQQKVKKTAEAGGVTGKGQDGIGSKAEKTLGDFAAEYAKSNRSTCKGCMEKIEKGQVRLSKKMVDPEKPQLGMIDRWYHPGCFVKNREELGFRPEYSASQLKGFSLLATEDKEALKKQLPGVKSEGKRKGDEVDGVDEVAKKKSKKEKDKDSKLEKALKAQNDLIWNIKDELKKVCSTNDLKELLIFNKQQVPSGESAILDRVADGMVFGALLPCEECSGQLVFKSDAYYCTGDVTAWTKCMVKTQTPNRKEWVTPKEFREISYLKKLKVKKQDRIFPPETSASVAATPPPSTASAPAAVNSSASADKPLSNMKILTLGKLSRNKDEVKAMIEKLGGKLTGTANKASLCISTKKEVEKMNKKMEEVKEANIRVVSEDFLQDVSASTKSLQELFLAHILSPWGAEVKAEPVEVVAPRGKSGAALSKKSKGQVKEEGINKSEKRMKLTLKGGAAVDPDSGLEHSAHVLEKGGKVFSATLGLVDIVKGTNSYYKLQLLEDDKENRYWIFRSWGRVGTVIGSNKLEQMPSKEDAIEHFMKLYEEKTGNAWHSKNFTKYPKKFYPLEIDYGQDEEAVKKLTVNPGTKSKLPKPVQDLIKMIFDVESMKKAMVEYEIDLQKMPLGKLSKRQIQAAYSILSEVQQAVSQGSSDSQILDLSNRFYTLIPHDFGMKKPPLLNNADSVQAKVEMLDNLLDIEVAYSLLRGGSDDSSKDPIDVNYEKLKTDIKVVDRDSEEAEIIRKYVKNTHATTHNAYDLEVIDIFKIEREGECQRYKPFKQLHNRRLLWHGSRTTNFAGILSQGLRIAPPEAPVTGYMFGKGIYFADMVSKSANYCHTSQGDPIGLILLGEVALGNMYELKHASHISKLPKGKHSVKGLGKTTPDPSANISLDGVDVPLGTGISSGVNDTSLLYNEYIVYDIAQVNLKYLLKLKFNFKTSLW
Structure (SMILES),EC50 [1],IC50 [2],IC50 [3]
"COc1ccc(N2CCN(c3nc4c(c(=O)[nH]3)CCCC4)CC2)cc1 [Compound A3, 2-[4-(4-methoxy-phenyl)-piperazin-1-yl]-5,6,7,8-tetrahydro-3H-quinazolin-4-one]",300 to 3000 nM,< 300 nM,< 300 nM
"O=c1[nH]c(N2CCN(c3ccc(F)cc3)CC2)nc2c1CCCC2 [Compound A6, 2-[4-(4-Fluorophenyl)piperazin-1-yl]-5,6,7,8-tetrahydro-3H-quinazolin-4-one]",300 to 3000 nM,300 to 3000 nM,< 300 nM
"COc1cccc(N2CCN(c3nc4c(c(=O)[nH]3)CCCC4)CC2)c1 [Compound A7, 2-[4-(3-Methoxyphenyl)piperazin-1-yl]-5,6,7,8-tetrahydro-3H-quinazolin-4-one]",300 to 3000 nM,300 to 3000 nM,< 300 nM
"O=c1[nH]c(N2CCN(c3ccccc3Cl)CC2)nc2c1CCCC2 [Compound A9, 2-[4-(2-Chlorophenyl)piperazin-1-yl]-5,6,7,8-tetrahydro-3H-quinazolin-4-one]",300 to 3000 nM,300 to 3000 nM,< 300 nM
"COc1ccccc1N1CCN(c2nc3c(c(=O)[nH]2)CCCC3)CC1 [Compound A12, 2-[4-(2-Methoxyphenyl)piperazin-1-yl]-5,6,7,8-tetrahydro-3H-quinazolin-4-one]",300 to 3000 nM,300 to 3000 nM,< 300 nM
"N#Cc1ccccc1N1CCN(c2nc3c(c(=O)[nH]2)CCCC3)CC1 [Compound A33, 2-[4-(4-oxo-5,6,7,8-tetrahydro-3H-quinazolin-2-yl)piperazin-1-yl]benzonitrile]",300 to 3000 nM,300 to 3000 nM,< 300 nM
"COc1cc(F)ccc1N1CCN(c2nc3c(c(=O)[nH]2)CCCC3)CC1 [Compound A36, 2-[4-(4-fluoro-2-methoxy-phenyl)piperazin-1-yl]-5,6,7,8-tetrahydro-3H-quinazolin-4-one]",300 to 3000 nM,300 to 3000 nM,< 300 nM
